Holding throughout (assay type): in vivo
In assay [1] the test system is Erysiphe graminis f. sp. tritici. The assay is described as follows: Efficacy against Erysiphe graminis on wheat plants (preventive spray, 24 h before contamination). Conditions: grading 7 to 14 days after contamination. The method, then:
(§1) The active ingredients tested are prepared by potter homogenisation in a mixture of acetone/tween/water. This suspension is then diluted with water to obtain the desired active material concentration.
Wheat plants (Audace variety) in starter cups, sown on 50/50 peat soil-pozzolana substrate and grown at 12° C., are treated at the 1-leaf stage (10 cm tall) by spraying with the aqueous suspension described above.
(§2) Plants, used as controls, are treated with an aqueous solution not containing the active material.
After 24 hours, the plants are contaminated by dusting them with Erysiphe graminis f. sp. tritici spores, the dusting being carried out using diseased plants.
(§3) Grading is carried out 7 to 14 days after the contamination, in comparison with the control plants.

In assay [2] the test system is Botrytis cinerea. The assay is described as follows: Efficacy against Botrytis cinerea on gherkin plants (preventive spray, 24 h before contamination). Conditions: grading 5 to 7 days after contamination. The method, then: The formulated (concentrated suspension) compounds are diluted with water to obtain the desired active material concentration Gherkin plants (Petit vert de Paris variety) in starter cups, sown on a 50/50 peat soil-pozzolana substrate and grown at 18-20° C., are treated at the cotyledon Z11 stage by spraying with the aqueous suspension described above. Plants, used as controls, are treated with an aqueous solution not containing the active material.
After 24 hours, the plants are contaminated by depositing drops of an aqueous suspension of Botrytis cinerea spores (150,000 spores per ml) on upper surface of the leaves. The spores are collected from a 15-day-old culture and are suspended in a nutrient solution composed of: • 20 g/L of gelatine • 50 g/L of cane sugar • 2 g/L of NH4NO3 • 1 g/L of KH2PO4
The contaminated gherkin plants are settled for 5/7 days in a climatic room at 15-11° C. (day/night) and at 80% relative humidity. Grading (% of efficacy) is carried out 5 to 7 days after the contamination, in comparison with the control plants.

Assay [3] concerns Erysiphe graminis f. sp. hordei. The assay is described as follows: Efficacy against Erysiphe graminis f. sp. hordei on barley plants (preventive spray, 24 h before contamination). Conditions: dose 500 g/ha, grading 7 to 14 days after contamination. The procedure:
as §1
Barley plants (Express variety) in starter cups, sown on 50/50 peat soil-pozzolana substrate and grown at 12° C., are treated at the 1-leaf stage (10 cm tall) by spraying with the aqueous suspension described above.
as §2
After 24 hours, the plants are contaminated by dusting them with Erysiphe graminis f. sp. hordei spores, the dusting being carried out using diseased plants.
as §3

With `Cc1cc(C2CC2)nc(Nc2ccccc2)n1` [Cyprodinil, cyprodinil], in assay [1] (dose 31.2 g/ha), the “% Efficacy” value amounted to 0%.

Take `Cc1cc(C)nc(Nc2ccccc2)n1` [Pyrimethanil, pyrimethanil]: the “% Efficacy” value in assay [2] (dose 12.3 ppm) is reported as 90%.

As to `CC#Cc1cc(C)nc(Nc2ccccc2)n1` [Mepanipyrim, mepanipyrim], the “% Efficacy” value in assay [3] is given as 0%.

Consider `O=C(NCCc1ncc(C(F)(F)F)cc1Cl)c1ccccc1C(F)(F)F` [Compound 1, N-{2-[3-chloro-5-(trifluoromethyl)-2-pyridinyl]ethyl}-2-trifluoromethylbenzamide], for which the “% Efficacy” value in assay [3] was determined as 40%; in assay [1] (dose 500 g/ha) it was 35%; in assay [2] (dose 37 ppm), 45%.

Values taken from patent US8410020B2, “Fungicidal composition comprising a pyridylethylbenzamide derivative and a compound capable of inhibiting the methionine biosynthesis” (Bayer Cropscience AG, priority 2004, dated 2013).
